According to patent EP4806435A1, “DIHYDROCHROMENE-DERIVATIVE-CONTAINING THERAPEUTIC AGENT FOR CANCER” (Sumitomo Pharma Co., Ltd., priority 2023, dated 2025):
Like-named read-outs stand apart in the source and are kept apart here.

Assay: Phase 1 clinical trial: plasma pharmacokinetics
Type: in vivo, human
Settings: for Tmax / half-life / Cmax / AUC / AUC(0-t): human, plasma, oral; for half-life: read-out: Effective T1/2 (converted); for AUC: tau = 24 hours
Protocol: Summary statistics based on preliminary data were obtained for the pharmacokinetics of Compound 1 in patients receiving once-daily doses ranging from 20 mg to 240 mg (Table 5). The mean plasma concentration-time curves of Compound 1 in the once-daily dose groups ranging from 20 mg to 240 mg are shown in Figure 11. In this study, one cycle consists of 28 days, and Cycle 1 Day 1 refers to Day 1 of the first cycle. […] Accumulation was observed after repeated administration. […] Based on these accumulation ratios, the half-life of Compound 1 was estimated to be approximately 4 days. Based on the currently available data, plasma concentrations are considered to have reached steady state by Day 15.
Summary statistics based on preliminary data were obtained for the pharmacokinetics of Compound 1 in patients in the 20 mg QD, 40 mg QD, 80 mg QD, 120 mg QD, 180 mg QD, 240 mg QD, 360 mg QD, and 480 mg daily (240 mg BID) dose groups (Table 6). The mean plasma concentration-time curves of Compound 1 in the 20 mg QD to 480 mg daily (240 mg BID) dose groups are shown in Figure 12 (in Figure 12, Compound 1 is denoted as "DSP-0390"). In this study, one cycle consists of 28 days, and Cycle 1 Day 1 refers to Day 1 of the first cycle. […] The median Tmax ranged from 2 to 8 hours. Accumulation was observed after repeated administration, and assuming linearity based on the observed accumulation ratios, the estimated elimination half-life was considered to be on the order of several days (approximately 1 to 6 days) (data cut-off: March 2024).

[1] = 480 mg (240 mg BID), cut-off March 2024

## CC1(C)Oc2cc(Cl)ccc2[C@@H]2OCC3(CCN(CCn4ccnc4)CC3)C[C@H]21 [Compound 1, (4'aR,10'bR)-8'-chloro-1-[2-(1H-imidazol-1-yl)ethyl]-5',5'-dimethyl-4'a,10'b-dihydro-2'H,4'H,5'H-spiro[piperidine-4,3'-pyrano[3,2-c][1]benzopyran] diphosphate]
20 mg QD, cut-off March 2024
  AR AUC (accumulation ratio): 7.31
  AR Cmax (accumulation ratio): 6.52
20 mg, QD, cut-off April 2023
  AR AUC (mean accumulation ratio): 7.4
  AR Cmax (mean accumulation ratio): 6.1
40 mg QD, cut-off March 2024
  AR AUC (accumulation ratio): 8.93
  AR Cmax (accumulation ratio): 6.04
40 mg, QD, cut-off April 2023
  AR AUC (mean accumulation ratio): 8.6
  AR Cmax (mean accumulation ratio): 6.2
80 mg QD, cut-off March 2024
  AR AUC (accumulation ratio): 4.47
  AR Cmax (accumulation ratio): 3.70
80 mg, QD, cut-off April 2023
  AR AUC (mean accumulation ratio): 6.9
  AR Cmax (mean accumulation ratio): 5.8
120 mg QD, cut-off March 2024
  AR AUC (accumulation ratio): 4.52
  AR Cmax (accumulation ratio): 3.53
120 mg, QD, cut-off April 2023
  AR AUC (mean accumulation ratio): 5.3
  AR Cmax (mean accumulation ratio): 4.6
180 mg QD, cut-off March 2024
  AR AUC (accumulation ratio): 3.55
  AR Cmax (accumulation ratio): 1.89
180 mg, QD, N=1, cut-off April 2023
  AR AUC (mean accumulation ratio): 3.9
180 mg, QD, cut-off April 2023
  AR Cmax (mean accumulation ratio): 2
240 mg QD, cut-off March 2024
  AR AUC (accumulation ratio): 3.29
  AR Cmax (accumulation ratio): 1.79
240 mg, QD, N=1, cut-off April 2023
  AR AUC (mean accumulation ratio): 3.9
240 mg, QD, cut-off April 2023
  AR Cmax (mean accumulation ratio): 2.6
360 mg QD, cut-off March 2024
  AR AUC (accumulation ratio): 2.07
  AR Cmax (accumulation ratio): 1.36
[1]
  AR AUC (accumulation ratio): 1.61
  AR Cmax (accumulation ratio): 2.42
cut-off April 2023
  half-life estimated from accumulation ratios: approximately 4 days
20 mg QD to 480 mg daily (240 mg BID), cut-off March 2024, read-out: median Tmax, range over dose groups
  Tmax: 2 to 8 h
20 mg, 20 mg QD, cut-off March 2024
  half-life: 113 h
20 mg, Cycle 1, Day 1, 20 mg QD, cut-off March 2024, read-out: Cmax
  Cmax: 4.28 ng/mL
20 mg, Cycle 1, Day 1, 20 mg QD, cut-off March 2024, read-out: Tmax [a] median value
  Tmax: 6 h
20 mg, Cycle 1, Day 1, 20 mg QD, cut-off March 2024, read-out: AUCtau [b]
  AUC: 76.6 ng·h/mL
20 mg, Cycle 1 Day 1, 20 mg, QD, cut-off April 2023, read-out: AUC0-24 (geometric mean)
  AUC(0-t): 76 ng·h/mL
20 mg, Cycle 1 Day 1, 20 mg, QD, cut-off April 2023, read-out: AUC0-24 (mean)
  AUC(0-t): 77 ng·h/mL
20 mg, Cycle 1 Day 1, 20 mg, QD, cut-off April 2023, read-out: AUC0-24 (median)
  AUC(0-t): 77 ng·h/mL
20 mg, Cycle 1 Day 1, 20 mg, QD, cut-off April 2023, read-out: Cmax (geometric mean)
  Cmax: 4 ng/mL
20 mg, Cycle 1 Day 1, 20 mg, QD, cut-off April 2023, read-out: Cmax (mean)
  Cmax: 4 ng/mL
20 mg, Cycle 1 Day 1, 20 mg, QD, cut-off April 2023, read-out: Cmax (median)
  Cmax: 4 ng/mL
20 mg, Cycle 1 Day 1, 20 mg, QD, cut-off April 2023, read-out: Tmax (mean)
  Tmax: 6 h
20 mg, Cycle 1 Day 1, 20 mg, QD, cut-off April 2023, read-out: Tmax (median)
  Tmax: 6 h
20 mg, Cycle 2, Day 1, 20 mg QD, cut-off March 2024, read-out: Cmax,ss
  Cmax: 27.9 ng/mL
20 mg, Cycle 2, Day 1, 20 mg QD, cut-off March 2024, read-out: Tmax,ss [a] median value
  Tmax: 7 h
20 mg, Cycle 2, Day 1, 20 mg QD, cut-off March 2024, read-out: AUCtau,ss [b]
  AUC: 560 ng·h/mL
20 mg, Cycle 2 Day 1, 20 mg, QD, cut-off April 2023, read-out: AUC0-24 (geometric mean)
  AUC(0-t): 557 ng·h/mL
20 mg, Cycle 2 Day 1, 20 mg, QD, cut-off April 2023, read-out: AUC0-24 (mean)
  AUC(0-t): 561 ng·h/mL
20 mg, Cycle 2 Day 1, 20 mg, QD, cut-off April 2023, read-out: AUC0-24 (median)
  AUC(0-t): 561 ng·h/mL
20 mg, Cycle 2 Day 1, 20 mg, QD, cut-off April 2023, read-out: Cmax (geometric mean)
  Cmax: 28 ng/mL
20 mg, Cycle 2 Day 1, 20 mg, QD, cut-off April 2023, read-out: Cmax (mean)
  Cmax: 28 ng/mL
20 mg, Cycle 2 Day 1, 20 mg, QD, cut-off April 2023, read-out: Cmax (median)
  Cmax: 28 ng/mL
20 mg, Cycle 2 Day 1, 20 mg, QD, cut-off April 2023, read-out: Tmax (mean)
  Tmax: 7 h
20 mg, Cycle 2 Day 1, 20 mg, QD, cut-off April 2023, read-out: Tmax (median)
  Tmax: 7 h
40 mg, 40 mg QD, cut-off March 2024
  half-life: 139 h
40 mg, Cycle 1, Day 1, 40 mg QD, cut-off March 2024, read-out: Cmax
  Cmax: 9.87 ng/mL
40 mg, Cycle 1, Day 1, 40 mg QD, cut-off March 2024, read-out: Tmax [a] median value
  Tmax: 8 h
40 mg, Cycle 1, Day 1, 40 mg QD, cut-off March 2024, read-out: AUCtau [b]
  AUC: 131 ng·h/mL
40 mg, Cycle 1 Day 1, 40 mg, QD, cut-off April 2023, read-out: AUC0-24 (geometric mean)
  AUC(0-t): 123 ng·h/mL
40 mg, Cycle 1 Day 1, 40 mg, QD, cut-off April 2023, read-out: AUC0-24 (mean)
  AUC(0-t): 132 ng·h/mL
40 mg, Cycle 1 Day 1, 40 mg, QD, cut-off April 2023, read-out: AUC0-24 (median)
  AUC(0-t): 107 ng·h/mL
40 mg, Cycle 1 Day 1, 40 mg, QD, cut-off April 2023, read-out: Cmax (geometric mean)
  Cmax: 8 ng/mL
40 mg, Cycle 1 Day 1, 40 mg, QD, cut-off April 2023, read-out: Cmax (mean)
  Cmax: 10 ng/mL
40 mg, Cycle 1 Day 1, 40 mg, QD, cut-off April 2023, read-out: Cmax (median)
  Cmax: 7 ng/mL
40 mg, Cycle 1 Day 1, 40 mg, QD, cut-off April 2023, read-out: Tmax (mean)
  Tmax: 11 h
40 mg, Cycle 1 Day 1, 40 mg, QD, cut-off April 2023, read-out: Tmax (median)
  Tmax: 8 h
40 mg, Cycle 2, Day 1, 40 mg QD, cut-off March 2024, read-out: Cmax,ss
  Cmax: 59.6 ng/mL
40 mg, Cycle 2, Day 1, 40 mg QD, cut-off March 2024, read-out: Tmax,ss [a] median value
  Tmax: 4 h
40 mg, Cycle 2, Day 1, 40 mg QD, cut-off March 2024, read-out: AUCtau,ss [b]
  AUC: 1170 ng·h/mL
40 mg, Cycle 2 Day 1, 40 mg, QD, cut-off April 2023, read-out: AUC0-24 (geometric mean)
  AUC(0-t): 1110 ng·h/mL
40 mg, Cycle 2 Day 1, 40 mg, QD, cut-off April 2023, read-out: AUC0-24 (mean)
  AUC(0-t): 1180 ng·h/mL
40 mg, Cycle 2 Day 1, 40 mg, QD, cut-off April 2023, read-out: AUC0-24 (median)
  AUC(0-t): 1370 ng·h/mL
40 mg, Cycle 2 Day 1, 40 mg, QD, cut-off April 2023, read-out: Cmax (geometric mean)
  Cmax: 56 ng/mL
40 mg, Cycle 2 Day 1, 40 mg, QD, cut-off April 2023, read-out: Cmax (mean)
  Cmax: 60 ng/mL
40 mg, Cycle 2 Day 1, 40 mg, QD, cut-off April 2023, read-out: Cmax (median)
  Cmax: 72 ng/mL
40 mg, Cycle 2 Day 1, 40 mg, QD, cut-off April 2023, read-out: Tmax (mean)
  Tmax: 5 h
40 mg, Cycle 2 Day 1, 40 mg, QD, cut-off April 2023, read-out: Tmax (median)
  Tmax: 4 h
80 mg, 80 mg QD, cut-off March 2024
  half-life: 64.8 h
80 mg, Cycle 1, Day 1, 80 mg QD, cut-off March 2024, read-out: Cmax
  Cmax: 17.1 ng/mL
80 mg, Cycle 1, Day 1, 80 mg QD, cut-off March 2024, read-out: Tmax [a] median value
  Tmax: 8 h
80 mg, Cycle 1, Day 1, 80 mg QD, cut-off March 2024, read-out: AUCtau [b]
  AUC: 264 ng·h/mL
80 mg, Cycle 1 Day 1, 80 mg, QD, cut-off April 2023, read-out: AUC0-24 (geometric mean)
  AUC(0-t): 203 ng·h/mL
80 mg, Cycle 1 Day 1, 80 mg, QD, cut-off April 2023, read-out: AUC0-24 (mean)
  AUC(0-t): 268 ng·h/mL
80 mg, Cycle 1 Day 1, 80 mg, QD, cut-off April 2023, read-out: AUC0-24 (median)
  AUC(0-t): 205 ng·h/mL
80 mg, Cycle 1 Day 1, 80 mg, QD, cut-off April 2023, read-out: Cmax (geometric mean)
  Cmax: 13 ng/mL
80 mg, Cycle 1 Day 1, 80 mg, QD, cut-off April 2023, read-out: Cmax (mean)
  Cmax: 17 ng/mL
80 mg, Cycle 1 Day 1, 80 mg, QD, cut-off April 2023, read-out: Cmax (median)
  Cmax: 15 ng/mL
80 mg, Cycle 1 Day 1, 80 mg, QD, cut-off April 2023, read-out: Tmax (mean)
  Tmax: 8 h
80 mg, Cycle 1 Day 1, 80 mg, QD, cut-off April 2023, read-out: Tmax (median)
  Tmax: 8 h
80 mg, Cycle 2, Day 1, 80 mg QD, cut-off March 2024, read-out: Cmax,ss
  Cmax: 63.2 ng/mL
80 mg, Cycle 2, Day 1, 80 mg QD, cut-off March 2024, read-out: Tmax,ss [a] median value
  Tmax: 8 h
80 mg, Cycle 2, Day 1, 80 mg QD, cut-off March 2024, read-out: AUCtau,ss [b]
  AUC: 1180 ng·h/mL
80 mg, Cycle 2 Day 1, 80 mg, QD, cut-off April 2023, read-out: AUC0-24 (geometric mean)
  AUC(0-t): 1100 ng·h/mL
80 mg, Cycle 2 Day 1, 80 mg, QD, cut-off April 2023, read-out: AUC0-24 (mean)
  AUC(0-t): 1190 ng·h/mL
80 mg, Cycle 2 Day 1, 80 mg, QD, cut-off April 2023, read-out: AUC0-24 (median)
  AUC(0-t): 1110 ng·h/mL
80 mg, Cycle 2 Day 1, 80 mg, QD, cut-off April 2023, read-out: Cmax (geometric mean)
  Cmax: 58 ng/mL
80 mg, Cycle 2 Day 1, 80 mg, QD, cut-off April 2023, read-out: Cmax (mean)
  Cmax: 63 ng/mL
